The values that follow come from ChEMBL document CHEMBL1201862, “PubChem BioAssay data set” (2004).

Calls of active or inactive are those of the source.

Assay [1] has as its target T1, C-C chemokine receptor type 6 (Homo sapiens, UniProt P51684).
T1 sequence (P51684 whole entry): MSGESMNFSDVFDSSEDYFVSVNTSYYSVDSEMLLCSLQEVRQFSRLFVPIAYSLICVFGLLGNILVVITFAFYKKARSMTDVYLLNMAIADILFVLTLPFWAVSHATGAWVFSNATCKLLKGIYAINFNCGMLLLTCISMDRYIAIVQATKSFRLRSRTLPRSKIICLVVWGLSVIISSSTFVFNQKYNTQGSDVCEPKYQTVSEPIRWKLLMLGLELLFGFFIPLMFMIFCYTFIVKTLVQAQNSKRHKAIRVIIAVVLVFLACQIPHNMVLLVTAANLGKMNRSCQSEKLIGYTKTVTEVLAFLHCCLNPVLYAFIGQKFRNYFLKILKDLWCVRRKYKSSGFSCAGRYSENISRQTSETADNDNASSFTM
As to the kind of experiment: CCR6 receptor antagonists, dose response, cell-based, luminescent beta-arrestin readout (AID 504728). Format: functional.

For assay [2], the target named is T2, SUMO-activating enzyme (Homo sapiens, UniProt Q9UBT2). As to the kind of experiment: inhibitors of in vitro SUMOylation cascade, primary screen, biochemical, HTRF, uHTS (AID 2006). Format: protein-complex assay.
Assay [3] addresses T2, SUMO-activating enzyme. In words: SUMOylation inhibitor hit validation, confirmation, SUMOylation inhibitor project, biochemical, AlphaScreen (AID 2018). Format: functional.
A further assay has as its target Beta-galactosidase (Escherichia coli, UniProt Q8VNN2). In words: beta-galactosidase enzyme inhibitors and activators, dose response, artefact control for CCR6 antagonist project, biochemical, E. coli enzyme, set 3 (AID 504712). The assay is classed as functional.
Assay [4] deals with T3, Alkaline phosphatase, tissue-nonspecific isozyme (Homo sapiens, UniProt P05186).
T3 sequence (P05186 whole entry): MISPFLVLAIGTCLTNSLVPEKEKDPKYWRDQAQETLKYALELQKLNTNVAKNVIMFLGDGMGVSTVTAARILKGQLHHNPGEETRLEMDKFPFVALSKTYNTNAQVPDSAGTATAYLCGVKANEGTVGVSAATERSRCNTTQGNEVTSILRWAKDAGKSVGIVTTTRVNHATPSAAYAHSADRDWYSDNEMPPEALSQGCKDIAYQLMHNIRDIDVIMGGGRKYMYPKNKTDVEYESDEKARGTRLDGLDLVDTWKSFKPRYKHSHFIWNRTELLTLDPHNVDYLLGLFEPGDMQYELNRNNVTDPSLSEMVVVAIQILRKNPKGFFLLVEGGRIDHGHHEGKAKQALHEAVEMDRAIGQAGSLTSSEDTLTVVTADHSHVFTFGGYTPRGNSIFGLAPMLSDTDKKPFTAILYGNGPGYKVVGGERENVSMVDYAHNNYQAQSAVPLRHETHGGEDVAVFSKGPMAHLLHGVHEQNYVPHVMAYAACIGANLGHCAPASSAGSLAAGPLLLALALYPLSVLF
In words: TNAP enzyme inhibition by screening hits, dose response, selectivity assay for mouse IAP inhibitor project, biochemical, human TNAP, uHTS hits (AID 488906). The assay is classed as functional.

For assay [5], the target named is Intestinal-type alkaline phosphatase (Mus musculus, UniProt P24822). As to the kind of experiment: PubChem AID 488785. The assay is classed as functional.
For assay [6], the target named is Intestinal-type alkaline phosphatase (Homo sapiens, UniProt P09923). In words: inhibition of human intestinal alkaline phosphatase – biochemical, dose response (AID 488876). The assay is classed as functional.
The test system of another assay is H9c2. In words: cells. Format: functional, cell-based. Conditions: Rattus norvegicus, H9c2, Myocardium.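 Note: confirmatory concentration-response retest of ultra-high-throughput screening hits for modulation of myocardial damage; cell death induced by hydrogen peroxide oxidative stress; compound pretreatment for 60 min then peroxide exposure for 2 h; potency is for protecting the cells against peroxide damage rather than for killing them.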
In assay [7] the target is Peroxisome proliferator-activated receptor gamma/Nuclear receptor coactivator 1 (Homo sapiens, UniProt P37231). As to the kind of experiment: TR-FRET dose response biochemical High Throughput Screening assay for agonists of the steroid receptor coactivator 1 (SRC-1) recruitment by the peroxisome proliferator-activated receptor gamma (PPAR gamma): non-selective agonists. [Related pubchem assays (depositor defined):AID1300, AID1808, AID504735, AID631]. The assay is classed as protein assay.

Assay [8] concerns the target Peroxisome proliferator-activated receptor gamma/Nuclear receptor coactivator 3 (Homo sapiens, UniProt P37231). As to the kind of experiment: TR-FRET dose response biochemical High Throughput Screening assay for agonists of the steroid receptor coactivator 3 (SRC-3) recruitment by the peroxisome proliferator-activated receptor gamma (PPAR gamma): non-selective agonists. [Related pubchem assays: 1301 (Confirmation screen.), 1048 (Primary screen.)]. Format: functional.

Assay [9] deals with Peroxisome proliferator-activated receptor gamma/Nuclear receptor coactivator 2 (Homo sapiens, UniProt P37231). As to the kind of experiment: TR-FRET dose response biochemical High Throughput Screening assay for agonists of the steroid receptor coactivator 2 (SRC-2) recruitment by the peroxisome proliferator-activated receptor gamma (PPAR gamma): non-selective agonists. [Related pubchem assays: 1297, 1032 ]. Format: functional.
Peroxisome proliferator-activated receptor gamma/Nuclear receptor coactivator 2, sequence (P37231 whole entry): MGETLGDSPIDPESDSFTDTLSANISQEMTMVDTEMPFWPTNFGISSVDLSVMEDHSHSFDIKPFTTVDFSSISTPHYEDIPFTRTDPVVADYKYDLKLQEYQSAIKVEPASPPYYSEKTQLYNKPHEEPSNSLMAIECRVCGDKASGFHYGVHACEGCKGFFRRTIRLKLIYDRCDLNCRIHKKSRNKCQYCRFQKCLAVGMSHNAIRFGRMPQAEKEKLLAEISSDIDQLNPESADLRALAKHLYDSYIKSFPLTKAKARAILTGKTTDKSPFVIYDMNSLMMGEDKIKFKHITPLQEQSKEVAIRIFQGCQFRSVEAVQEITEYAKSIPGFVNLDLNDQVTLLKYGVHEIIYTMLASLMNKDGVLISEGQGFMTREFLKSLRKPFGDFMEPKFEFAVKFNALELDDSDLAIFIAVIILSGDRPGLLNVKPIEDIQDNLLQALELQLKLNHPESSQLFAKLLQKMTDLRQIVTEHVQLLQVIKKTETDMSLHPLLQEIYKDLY
Peroxisome proliferator-activated receptor gamma/Nuclear receptor coactivator 2, sequence (Q15596 whole entry, further chain): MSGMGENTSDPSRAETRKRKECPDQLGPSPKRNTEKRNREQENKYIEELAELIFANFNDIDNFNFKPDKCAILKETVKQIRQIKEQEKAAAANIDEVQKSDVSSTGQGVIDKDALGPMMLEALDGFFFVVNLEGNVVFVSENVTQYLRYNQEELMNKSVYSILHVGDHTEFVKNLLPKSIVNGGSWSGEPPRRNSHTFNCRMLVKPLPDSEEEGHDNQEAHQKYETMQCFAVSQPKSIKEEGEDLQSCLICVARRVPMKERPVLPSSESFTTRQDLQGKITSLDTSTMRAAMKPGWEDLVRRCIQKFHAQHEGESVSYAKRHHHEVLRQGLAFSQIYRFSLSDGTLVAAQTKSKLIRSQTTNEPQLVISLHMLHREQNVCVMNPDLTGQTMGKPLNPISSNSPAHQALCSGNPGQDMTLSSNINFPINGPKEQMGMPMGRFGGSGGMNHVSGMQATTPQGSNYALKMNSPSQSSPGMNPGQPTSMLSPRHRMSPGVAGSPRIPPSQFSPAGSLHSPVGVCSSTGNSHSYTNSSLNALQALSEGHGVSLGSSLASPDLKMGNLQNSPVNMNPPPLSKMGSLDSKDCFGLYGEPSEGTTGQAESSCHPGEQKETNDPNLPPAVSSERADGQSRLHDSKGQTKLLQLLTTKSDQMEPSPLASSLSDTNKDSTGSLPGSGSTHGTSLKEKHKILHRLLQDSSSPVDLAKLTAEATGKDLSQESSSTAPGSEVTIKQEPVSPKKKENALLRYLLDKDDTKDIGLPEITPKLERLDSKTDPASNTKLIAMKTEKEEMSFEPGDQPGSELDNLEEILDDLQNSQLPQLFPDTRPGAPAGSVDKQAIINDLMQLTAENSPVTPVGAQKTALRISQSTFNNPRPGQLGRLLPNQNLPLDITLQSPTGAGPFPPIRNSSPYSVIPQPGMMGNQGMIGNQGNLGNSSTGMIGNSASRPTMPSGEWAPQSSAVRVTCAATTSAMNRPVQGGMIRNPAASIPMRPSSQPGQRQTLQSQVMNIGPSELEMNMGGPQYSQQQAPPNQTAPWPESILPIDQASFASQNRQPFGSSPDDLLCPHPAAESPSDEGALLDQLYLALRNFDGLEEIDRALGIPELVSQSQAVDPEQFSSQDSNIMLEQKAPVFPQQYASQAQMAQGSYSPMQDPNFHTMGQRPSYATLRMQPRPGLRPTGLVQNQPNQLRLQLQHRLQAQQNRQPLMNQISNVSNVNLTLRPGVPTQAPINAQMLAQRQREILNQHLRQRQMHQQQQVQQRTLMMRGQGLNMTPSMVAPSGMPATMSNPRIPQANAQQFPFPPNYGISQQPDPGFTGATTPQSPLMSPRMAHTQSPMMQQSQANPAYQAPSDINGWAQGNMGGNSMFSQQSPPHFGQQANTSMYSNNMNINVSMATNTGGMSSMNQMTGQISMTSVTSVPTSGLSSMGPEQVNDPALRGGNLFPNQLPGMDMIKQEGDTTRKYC

T2 sequence (Q9UBE0 whole entry): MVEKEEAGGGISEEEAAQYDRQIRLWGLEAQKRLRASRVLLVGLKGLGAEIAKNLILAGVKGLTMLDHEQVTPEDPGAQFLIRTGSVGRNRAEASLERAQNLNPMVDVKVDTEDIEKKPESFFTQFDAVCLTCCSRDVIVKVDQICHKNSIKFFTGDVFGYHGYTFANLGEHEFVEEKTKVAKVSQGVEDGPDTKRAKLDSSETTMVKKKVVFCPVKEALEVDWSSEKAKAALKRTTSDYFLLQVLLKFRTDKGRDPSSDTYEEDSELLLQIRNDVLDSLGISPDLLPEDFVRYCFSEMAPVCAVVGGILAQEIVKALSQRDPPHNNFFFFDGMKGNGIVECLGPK
T2 sequence (Q9UBT2 whole entry): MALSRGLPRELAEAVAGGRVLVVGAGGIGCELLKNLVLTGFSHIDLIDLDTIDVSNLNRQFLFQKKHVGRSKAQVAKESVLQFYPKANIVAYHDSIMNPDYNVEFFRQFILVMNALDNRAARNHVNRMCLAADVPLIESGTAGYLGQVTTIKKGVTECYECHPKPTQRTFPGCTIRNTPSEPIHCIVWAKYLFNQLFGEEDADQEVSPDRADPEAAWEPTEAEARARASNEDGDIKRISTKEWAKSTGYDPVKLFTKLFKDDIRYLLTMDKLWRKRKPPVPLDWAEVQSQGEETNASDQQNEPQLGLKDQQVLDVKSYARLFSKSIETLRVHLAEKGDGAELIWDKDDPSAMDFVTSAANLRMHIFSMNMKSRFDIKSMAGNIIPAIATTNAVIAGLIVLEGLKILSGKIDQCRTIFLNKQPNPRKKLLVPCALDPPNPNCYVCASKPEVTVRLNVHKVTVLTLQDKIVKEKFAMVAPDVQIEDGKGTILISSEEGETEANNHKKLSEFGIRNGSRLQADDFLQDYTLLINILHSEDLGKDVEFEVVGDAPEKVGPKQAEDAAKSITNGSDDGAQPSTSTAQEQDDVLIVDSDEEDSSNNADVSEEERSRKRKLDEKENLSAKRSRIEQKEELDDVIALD
Intestinal-type alkaline phosphatase (Mus musculus, UniProt P24822), sequence (P24822 whole entry): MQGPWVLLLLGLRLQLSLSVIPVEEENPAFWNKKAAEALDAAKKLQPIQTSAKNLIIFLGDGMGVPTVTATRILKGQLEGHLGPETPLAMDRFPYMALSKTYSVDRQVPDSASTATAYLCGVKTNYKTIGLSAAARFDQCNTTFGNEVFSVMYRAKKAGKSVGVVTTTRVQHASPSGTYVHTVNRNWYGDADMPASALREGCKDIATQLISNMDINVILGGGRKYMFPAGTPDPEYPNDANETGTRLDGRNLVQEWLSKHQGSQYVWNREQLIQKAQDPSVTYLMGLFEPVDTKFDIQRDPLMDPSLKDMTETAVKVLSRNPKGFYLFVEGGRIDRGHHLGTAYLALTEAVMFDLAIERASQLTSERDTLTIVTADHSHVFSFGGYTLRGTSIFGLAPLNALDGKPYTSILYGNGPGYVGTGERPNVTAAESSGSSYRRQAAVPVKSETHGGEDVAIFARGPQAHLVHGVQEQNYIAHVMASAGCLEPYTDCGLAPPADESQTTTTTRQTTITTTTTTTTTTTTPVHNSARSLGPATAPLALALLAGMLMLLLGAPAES
Intestinal-type alkaline phosphatase (Homo sapiens, UniProt P09923), sequence (P09923 whole entry): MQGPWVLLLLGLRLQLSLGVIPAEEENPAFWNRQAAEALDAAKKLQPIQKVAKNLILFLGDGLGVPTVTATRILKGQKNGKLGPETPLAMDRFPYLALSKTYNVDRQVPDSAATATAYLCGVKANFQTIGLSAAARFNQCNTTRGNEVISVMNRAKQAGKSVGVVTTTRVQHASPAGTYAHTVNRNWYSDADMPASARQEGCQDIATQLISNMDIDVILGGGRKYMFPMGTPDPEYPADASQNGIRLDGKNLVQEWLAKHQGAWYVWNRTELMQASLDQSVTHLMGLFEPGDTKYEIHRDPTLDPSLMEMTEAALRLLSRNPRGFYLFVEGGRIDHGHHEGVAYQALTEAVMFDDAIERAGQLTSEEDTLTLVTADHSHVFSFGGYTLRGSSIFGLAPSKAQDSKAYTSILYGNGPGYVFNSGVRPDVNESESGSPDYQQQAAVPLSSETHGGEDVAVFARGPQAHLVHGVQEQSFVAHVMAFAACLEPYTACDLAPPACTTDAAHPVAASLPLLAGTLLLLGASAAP
Beta-galactosidase, sequence (Q8VNN2 whole entry): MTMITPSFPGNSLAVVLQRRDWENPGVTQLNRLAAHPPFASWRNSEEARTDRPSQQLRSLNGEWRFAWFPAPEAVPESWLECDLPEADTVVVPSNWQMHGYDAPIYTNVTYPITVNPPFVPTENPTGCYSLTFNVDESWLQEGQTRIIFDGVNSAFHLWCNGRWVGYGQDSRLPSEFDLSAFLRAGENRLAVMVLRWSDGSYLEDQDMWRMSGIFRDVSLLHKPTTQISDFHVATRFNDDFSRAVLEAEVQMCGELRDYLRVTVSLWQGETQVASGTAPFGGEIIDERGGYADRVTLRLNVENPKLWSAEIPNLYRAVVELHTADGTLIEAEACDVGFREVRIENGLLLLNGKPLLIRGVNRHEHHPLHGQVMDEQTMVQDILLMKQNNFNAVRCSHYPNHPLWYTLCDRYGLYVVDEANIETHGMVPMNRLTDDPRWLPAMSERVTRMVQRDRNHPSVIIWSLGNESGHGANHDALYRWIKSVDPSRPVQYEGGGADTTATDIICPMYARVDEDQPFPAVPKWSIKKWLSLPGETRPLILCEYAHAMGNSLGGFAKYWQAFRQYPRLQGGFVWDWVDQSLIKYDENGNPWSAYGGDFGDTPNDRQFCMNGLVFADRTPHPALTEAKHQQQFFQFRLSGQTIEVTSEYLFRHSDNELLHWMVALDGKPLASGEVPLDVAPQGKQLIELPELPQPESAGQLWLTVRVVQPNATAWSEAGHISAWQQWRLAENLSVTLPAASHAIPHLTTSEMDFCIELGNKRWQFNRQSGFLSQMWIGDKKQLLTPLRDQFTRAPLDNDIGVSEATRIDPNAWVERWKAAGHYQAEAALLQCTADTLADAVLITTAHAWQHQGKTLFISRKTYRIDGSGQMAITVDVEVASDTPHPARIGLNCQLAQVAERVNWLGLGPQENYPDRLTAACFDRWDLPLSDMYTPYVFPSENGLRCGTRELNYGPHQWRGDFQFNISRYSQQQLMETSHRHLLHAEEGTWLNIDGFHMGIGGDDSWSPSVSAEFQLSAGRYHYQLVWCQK

In the case of `N#C/C(=C\c1ccc(-c2ccc([N+](=O)[O-])cc2)o1)C(=O)Nc1nc(-c2cccs2)cs1`, the IC50 in assay [1] was > 66.6 µM (inactive); at SUMO-activating enzyme [2] it was 8.52 µM (active); at SUMO-activating enzyme [3], 18.2 µM (active); at Beta-galactosidase, > 66.6 µM (inactive).

In the case of `COc1ccc(CN2C3CCCC2CC(NC(=O)Nc2cccc(C)c2)C3)cc1` (stereo unspecified), the results for the IC50 in [4], in assay [5] and in assay [6] were 32.2 µM (active), 11 µM (active) and 22.7 µM (active), respectively.

Take `O=C(Nc1cccnc1)c1sc(Nc2ccccc2)nc1-c1ccccc1`: the IC50 in the assay on H9c2 was > 79 µM (inactive). Besides, the EC50 in assay [7] was 2.72 µM (active); in [8] it was 40 µM (not active); in [9] it was 3.26 µM (active).
